Results on seven compounds are retold here after ChEMBL document CHEMBL1154584, “Hachijodines A-G: seven new cytotoxic 3-alkylpyridine alkaloids from two marine sponges of the genera Xestospongia and amphimedon” (2000).

This assay has as its system P388. Nature of the assay: Cytotoxicity against mouse P388 cells. The assay is classed as functional.
`CONCCC(C)CCCCCCCCCc1cccnc1` (configuration not stated) [HACHIJODINE B] registered an Activity of 2.2 µg/mL.

In turn, `CN(O)CCCCCCCCCCCCCc1cccnc1` [HACHIJODINE E] showed an Activity of 2.3 µg/mL.

In turn, `CONCCCCCCCCCCC(C)Cc1cccnc1` (configuration not stated) [HACHIJODINE D] displayed an Activity of 2.2 µg/mL.

`CN(O)CCCCCCCCC#CCCCCc1cccnc1` [HACHIJODINE F] had an Activity of 1 µg/mL.

`CN(O)CCCCCCCC/C=C\C#CCCCCc1cccnc1` [HACHIJODINE G] showed an Activity of 1 µg/mL.

For the compound `CONCC(C)CCCCCCCCCCc1cccnc1` (configuration not stated) [HACHIJODINE C], the Activity is 2.2 µg/mL.

As to `CONCCCCCCCCCCCCc1cccnc1` [HACHIJODINE A], the Activity came to 2.2 µg/mL.
